Data on one compound can be found in patent US10982219B2, “Guayule with increased rubber production and yield” (The United States of America, as represented by the …, priority 2017, dated 2021).

Common to all, as to assay type: in vivo, Parthenium argentatum
In one test the test system is PaAos. The test can be described thus: qRT-PCR of PaAOS in SA treated soil-grown guayule. To be noted: 10 nM SA to soil twice weekly for two months. The procedure:
(§1) The effect of SA on guayule PaAos gene expression is tested in wild-type guayule G7-11 plants. SA is added to the growth medium (K0) in tissue culture at different concentrations, 0 nM, 10 nM and 100 nM. Shoot tips are transferred to the growth media, and plants are grown for 8 weeks. The rubber content of the plant tissues is determined by standard procedures (ASE, see Example 3 supra). […] The effect of exogenous 10 nM SA on one month old guayule plants grown in the soil under greenhouse conditions is also examined.
In general terms: Quantitative PCR measures a nucleic acid by following its amplification.

Test [1] concerns guayule G7-11 plants. The test can be described thus: Exogenous SA applied to soil of greenhouse guayule, growth and rubber content. To be noted: 50 ml of 10 nM SA to soil twice weekly for two months. As for the experimental part: as §1
The subject of test [2] is guayule G7-11 plants. Kind of test: Exogenous SA in tissue culture growth medium, rubber content by ASE. To be noted: 8 weeks, versus 0 nM. The procedure:
as §1

Consider `O=C(O)c1ccccc1O` [SA, salicylic acid], for which the “PaAOS expression (qRT-PCR)” value in the test with PaAos is listed as “low expression pattern”. Moreover, in the test with guayule G7-11 plants [1] (versus mock or water treated), the “height and primary stem diameter” value was “significant differences in the height and primary stem diameter”. Further, the rubber content result in the test with guayule G7-11 plants [1] (versus mock treated) is “slightly increases and significantly differs”. Besides, the “amount of rubber produced” value in the test on guayule G7-11 plants [2] (10 nM SA in growth medium) and in the test with guayule G7-11 plants [2] (100 nM SA in growth medium) was “increases the amount of rubber produced in a significant manner” throughout.
